Converted amounts (≈) assume the structure as drawn. Each block holds one molecule with its values, some of them ahead of it.
Columns and labels:
[1] = Solubility of paclitaxel in HBSS (centrifugation, HPLC of supernatant); type: physicochemical; settings: Hank's Balanced Salt Solution (HBSS), aqueous buffer, thermodynamic from solid, 37° C., 2 h mixing, API/excipient 1/3, total dispersed API 2,500 μg/mL, 16,000 g 10 min, read-out: water solubility of paclitaxel (concentration in supernatant)
Experimental: The mixing time was 2 h before subjecting the dispersion to centrifugation to collect supernatant for paclitaxel quantification.
Thereafter, the dispersions were centrifuged at 16,000 g for 10 min, and the supernatants were collected for paclitaxel quantification using HPLC. The concentration of paclitaxel in the supernatant was considered as its water solubility.

[2] = Solubility of griseofulvin in HBSS (centrifugation, HPLC of supernatant); type: physicochemical; settings: Hank's Balanced Salt Solution (HBSS), aqueous buffer, thermodynamic from solid, 37° C., 2 h mixing, API/excipient 1/3, total dispersed API 2,500 μg/mL, 16,000 g 10 min, read-out: water solubility of griseofulvin (concentration in supernatant)
Experimental: The mixing time was 2 h before subjecting the dispersion to centrifugation to collect supernatant for griseofulvin quantification.
Thereafter, the dispersions were centrifuged at 16,000 g for 10 min, and the supernatants were collected for griseofulvin quantification using HPLC. The concentration of griseofulvin in the supernatant was considered as its water solubility.

[3] = Solubility of celecoxib in HBSS (centrifugation, HPLC of supernatant); type: physicochemical; settings: Hank's Balanced Salt Solution (HBSS), aqueous buffer, thermodynamic from solid, 37° C., 2 h mixing, API/excipient 1/5, total dispersed API 1,000 μg/mL, 16,000 g 10 min, read-out: water solubility of celecoxib (concentration in supernatant)
Experimental: FIG. 8 provides a graph showing the solubility of celecoxib when incorporated with OHPP, HPMCAS, and Soluplus, as compared with that of celecoxib alone. The ratios between celecoxib and each excipient was 1/5, with total dispersed API of 1,000 μg/mL in HBSS buffer (37° C.). The mixing time was 2 h before subjecting the dispersion to centrifugation to collect supernatant for celecoxib quantification. The weight ratio of celecoxib, OHPP, and HPMCAS was 1, 3, and 2 respectively for the Cel-OHPP-HPMCAS preparation.
Thereafter, the dispersions were centrifuged at 16,000 g for 10 min, and the supernatants were collected for celecoxib quantification using HPLC. The concentration of celecoxib in the supernatant was considered as its water solubility.

physchem = type: physicochemical
Experimental: FIG. 7 provides a graph showing the solubility of curcumin when incorporated with OHPP, HPMCAS, and Soluplus, as compared with that of curcumin alone. The ratio between curcumin and excipient was 1/9, with total dispersed curcumin of 1,000 μg/mL in HBSS buffer (37° C.). The mixing time was 2 h before subjecting the dispersion to centrifugation to collect supernatant for curcumin quantification.
Thereafter, the dispersions were centrifuged at 16,000 g for 10 min, and the supernatants were collected for curcumin quantification using HPLC. The concentration of curcumin in the supernatant was considered as its water solubility.

[4] = Solubility of niclosamide in HBSS (centrifugation, HPLC of supernatant); type: physicochemical; settings: Hank's Balanced Salt Solution (HBSS), aqueous buffer, thermodynamic from solid, 37° C., 2 h mixing, API/excipient 1/3, total dispersed API 2,500 μg/mL, 16,000 g 10 min, read-out: water solubility of niclosamide (concentration in supernatant)
Experimental: FIG. 2 provides a graph showing the solubility of niclosamide when incorporated with OHPP, HPMCAS, and Soluplus (Soluplus®, BASF), as compared with that of niclosamide alone. The ratio between niclosamide and excipient was 1/3, with total dispersed API of 2,500 μg/mL in HBSS buffer (37° C.). The mixing time was 2 h before subjecting the dispersion to centrifugation to collect supernatant for API quantification.
Thereafter, the dispersions were centrifuged at 16,000 g for 10 min, and the supernatants were collected for niclosamide quantification using HPLC. The concentration of niclosamide in the supernatant was considered as its water solubility.

[5] = Solubility of itraconazole in HBSS (centrifugation, HPLC of supernatant); type: physicochemical; settings: Hank's Balanced Salt Solution (HBSS), aqueous buffer, thermodynamic from solid, 20° C., 10 min vortex, API/excipient 1/3, total dispersed API 2,500 μg/mL, 16,000 g 10 min, read-out: water solubility of itraconazole (concentration in supernatant)
Experimental: (§1) FIG. 6 provides a graph showing the solubility of itraconazole when incorporated with OHPP, HPMCAS, and Soluplus, as compared with that of itraconazole alone. The ratio between itraconazole and excipient was 1/3, with total dispersed itraconazole of 2,500 μg/mL in HBSS buffer (20° C.). The mixing time was 10 min before subjecting the dispersion to centrifugation to collect supernatant for itraconazole quantification.
Thereafter, the dispersions were centrifuged at 16,000 g for 10 min, and the supernatants were collected for itraconazole quantification using HPLC. The concentration of itraconazole in the supernatant was considered as its water solubility.

[6] = Solubility of docetaxel in HBSS (centrifugation, HPLC of supernatant); type: physicochemical; settings: Hank's Balanced Salt Solution (HBSS), aqueous buffer, thermodynamic from solid, 20° C., 10 min vortex, API/excipient 1/3, total dispersed API 2,500 μg/mL, 16,000 g 10 min, read-out: water solubility of docetaxel (concentration in supernatant)
Experimental: as §1, with “5” for “6”, “docetaxel” for “itraconazole”
Thereafter, the dispersions were centrifuged at 16,000 g for 10 min, and the supernatants were collected for docetaxel quantification using HPLC. The concentration of docetaxel in the supernatant was considered as its water solubility.

Experimental for Caco-2 cell monolayer: Nic-1000 and Nic-100: supernatant from centrifuged dispersion of pure niclosamide in HBSS at dispersing dose of 1000 and 100 μg/mL, respectively. Cel-1000 and Cel-100: supernatant from centrifuged dispersion of pure celecoxib in HBSS at dispersing dose of 1000 and 100 μg/mL, respectively. Nic-OHPP-100: supernatant from centrifuged dispersion of Nic-OHPP in HBSS at dispersing dose of 100 μg/mL (for pure niclosamide). Cel-OHPP-HPMCAS-100: supernatant of Cel-OHPP-HPMCAS dispersed in HBSS buffer at 100 μg/mL.
Caco-2 cells were seeded in the inserts with tissue-culture-treated polyester membranes (Transwells, 0.4 μm pore size, Corning) at a density of 1×10^4 cells/well. After seeding, the medium was changed every other day until the day of the permeation test. All tests were performed on day 21 after seeding. For the test, the culture medium was removed and the cells were washed twice with PBS buffer. The cells were then equilibrated in HBSS for 15 min prior to each study, and then apical and basolateral solution were aspirated.
To measure the apical-to-basolateral permeation of API, 0.5 mL of each test solution was added to the apical compartment, and the basolateral compartment received 1.5 mL HBSS. As a control, reference cells were incubated with 0.5 mL blank HBSS on the apical side, while the basolateral side received 1.5 mL of HBSS. All cultures were incubated in an incubator (5% CO2, 37° C.) for 2 h. After the incubation, the apical and the basolateral solutions were collected respectively and their amounts of API were determined using HPLC.
The loaded dispersions were prepared in two steps: (1) dispersing API-excipient complex solid and API alone in HBSS at the doses of 1000 μg/mL or 100 μg/mL, and (2) subjecting each dispersion to centrifugation (16,000 g, 5 min) to collect supernatant. The supernatants were loaded in the apical compartments of inserts.

- solubility at 2 h [1]: ~0.0062 mg/mL
Molecule: CC(=O)O[C@H]1C(=O)[C@@]2(C)[C@H]([C@H](OC(=O)c3ccccc3)[C@]3(O)C[C@H](OC(=O)[C@H](O)[C@@H](NC(=O)c4ccccc4)c4ccccc4)C(C)=C1C3(C)C)[C@]1(OC(C)=O)CO[C@@H]1C[C@@H]2O [paclitaxel]

- solubility at 2 h [2]: ~0.0175 mg/mL
Molecule: COC1=CC(=O)C[C@@H](C)[C@]12Oc1c(Cl)c(OC)cc(OC)c1C2=O [griseofulvin]

- solubility at 2 h [3]: ~0.0128 mg/mL
Molecule: Cc1ccc(-c2cc(C(F)(F)F)nn2-c2ccc(S(N)(=O)=O)cc2)cc1 [celecoxib]
- permeation of API through Caco-2 monolayer, API alone (Caco-2 cell monolayer): not sufficient to provide an appreciable permeation

- solubility at 2 h (physchem; 37 °C, aqueous buffer, thermodynamic from solid): ~0.0072 mg/mL (≈ 19.5 µM)
Molecule: COc1cc(/C=C/C(=O)CC(=O)/C=C/c2ccc(O)c(OC)c2)ccc1O [curcumin]

- solubility at 2 h [4]: ~0.0132 mg/mL
Molecule: O=C(Nc1ccc([N+](=O)[O-])cc1Cl)c1cc(Cl)ccc1O [niclosamide]
- permeation of API through Caco-2 monolayer, API alone (Caco-2 cell monolayer): not sufficient to provide an appreciable permeation

- solubility at 10 min [5]: ~0.00096 mg/mL
Molecule: CCC(C)n1ncn(-c2ccc(N3CCN(c4ccc(OCC5COC(Cn6cncn6)(c6ccc(Cl)cc6Cl)O5)cc4)CC3)cc2)c1=O (centres unmarked) [itraconazole]

- solubility at 10 min [6]: ~0.0111 mg/mL
Molecule: CC(=O)O[C@@]12CO[C@@H]1C[C@H](O)[C@@]1(C)C(=O)[C@H](O)C3=C(C)[C@@H](OC(=O)[C@H](O)[C@@H](NC(=O)OC(C)(C)C)c4ccccc4)C[C@@](O)([C@@H](OC(=O)c4ccccc4)[C@H]21)C3(C)C [docetaxel]

- permeation of API through Caco-2 monolayer when OHPP was used (Caco-2 cell monolayer): substantially increased
- increase of the solubility of curcumin in aqueous solution by use of OHPP (physchem): at least 100 times
Molecule: octenylsuccinate hydroxypropyl phytoglycogen [OHPP]
